# Tested on: RSV RSS strain
# Experiment: ELISA assay of antiviral activity against RSV (reduction in RSV protein expression)
# Format: cell-based
# Details: Hep-2 cells infected with RSV RSS strain, multiplicity of infection 0.02, 3 days; concentration required to inhibit RSV protein expression by 50%
# Description: The antiviral activity of these compounds against RSV was determined in an ELISA assay. […] ELISA assays were set up by seeding 96-well plates with 5×10^3 Hep-2 cells per well in 100 μl DMEM containing 10% FBS for 24 h. Compound dilutions were prepared in 0.5% DMSO and 50 μl/well was added to the assay plates, the plates were incubated at 37° C. in 5% CO2 for one hour. Cells were infected with 50 μl/well RSV RSS strain at a multiplicity of infection of 0.02 and were incubated at 37° C. in 5% CO2 for 3 days. Cells were then fixed and permeabilised with 75%/25% methanol acetone and blocked with 2% Marvel™, 0.05% Tween for one hour. Plates were then incubated in the presence of a 1:4000 dilution of […] polyclonal antibody (Millipore, AB1128) followed by a 1:1000 dilution of rabbit anti-goat, horseradish peroxidase (DAKO, PO449) labelled secondary antibody. The plates were developed with O-phenylenediamine in the presence of hydrogen peroxide. The antiviral activity of the compounds is presented as an IC50, the concentration required to inhibit RSV protein expression by 50%.
row,Compound,IC50 [nM]
1,1-[[5-(aminomethyl)-1-(4-hydroxybutyl)benzimidazol-2-yl]methyl]-3-(2-methoxyethyl)-4H-quinazolin-2-one [Example 26],0.4
2,1-[[5-(aminomethyl)-1-(4-hydroxybutyl)benzimidazol-2-yl]methyl]-3-(cyclohexylmethyl)-4H-quinazolin-2-one [Example 27],94
3,1-[[5-(aminomethyl)-1-(4-hydroxybutyl)benzimidazol-2-yl]methyl]-3-cyclopropyl-4H-quinazolin-2-one [Example 25],1.5
4,1-[[5-[(3-aminopropylamino)methyl]-1-isopentyl-benzimidazol-2-yl]methyl]-3-(2-methoxyethyl)-4H-quinazolin-2-one [Example 33],243
5,1-[[5-[(3-aminopropylamino)methyl]-1-isopentyl-benzimidazol-2-yl]methyl]-3-cyclopropyl-4H-quinazolin-2-one [Example 32],32
6,1-[[5-[(3-aminopropylamino)methyl]-1-isopentyl-benzimidazol-2-yl]methyl]-3-methyl-4H-quinazolin-2-one [Example 31],23
7,2-[(3-cyclopropyl-2-oxo-4H-quinazolin-1-yl)methyl]-N′-hydroxy-1-isopentyl-benzimidazole-5-carboxamidine [Example 38],88.9
8,"3-cyclopropyl-1-[(1-isopentylbenzimidazol-2-yl)methyl]-4,4-dimethyl-quinazolin-2-one [Example 4]",1420
9,"CC(C)CCN1Cc2ccccc2N(Cc2nc3cc(CN)ccc3n2CCC(C)C)C1=O [Example 14, 1-[[5-(aminomethyl)-1-isopentyl-benzimidazol-2-yl]methyl]-3-isopentyl-4H-quinazolin-2-one]",2.1

# Same assay, conditions: human respiratory syncytial virus, 72 h; Hep-2 cells infected with RSV RSS strain, multiplicity of infection 0.02, 3 days; concentration required to inhibit RSV protein expression by 50%
row,Compound,IC50 [nM]
1,CC(C)CCn1c(CN2C(=O)N(C3CC3)Cc3ccccc32)nc2ccccc21 [Example 1],1890
2,"CC(C)CCN1Cc2ccccc2N(Cc2nc3ccccc3n2CCC(C)C)C1=O [Example 2, 3-isopentyl-1-[(1-isopentylbenzimidazol-2-yl)methyl]-4H-quinazolin-2-one]",> 1000
3,"CC(C)CCn1c(CN2C(=O)N(C3CC3)C(C)c3ccccc32)nc2ccccc21 (stereo not drawn) [Example 3, 3-cyclopropyl-1-[(1-isopentylbenzimidazol-2-yl)methyl]-4-methyl-4H-quinazolin-2-one]",1300
4,"CCCN1Cc2ccccc2N(Cc2nc3cc(CN)ccc3n2CCC(C)C)C1=O [Example 6, 1-[[5-(aminomethyl)-1-isopentyl-benzimidazol-2-yl]methyl]-3-propyl-4H-quinazolin-2-one]",1.2
5,"CC(C)CCn1c(CN2C(=O)N(C(C)(C)C)Cc3ccccc32)nc2cc(CN)ccc21 [Example 8, 1-[[5-(aminomethyl)-1-isopentyl-benzimidazol-2-yl]methyl]-3-tert-butyl-4H-quinazolin-2-one]",16.7
6,"CC(C)CCn1c(CN2C(=O)N(C3CCCC3)Cc3ccccc32)nc2cc(CN)ccc21 [Example 9, 1-[[5-(aminomethyl)-1-isopentyl-benzimidazol-2-yl]methyl]-3-cyclopentyl-4H-quinazolin-2-one]",1.3
7,"CC(C)CCn1c(CN2C(=O)N(Cc3ccccc3)Cc3ccccc32)nc2cc(CN)ccc21 [Example 10, 1-[[5-(aminomethyl)-1-isopentyl-benzimidazol-2-yl]methyl]-3-benzyl-4H-quinazolin-2-one]",15.7
8,"CC(C)CCn1c(CN2C(=O)N(CCc3ccccc3)Cc3ccccc32)nc2cc(CN)ccc21 [Example 11, 1-[[5-(aminomethyl)-1-isopentyl-benzimidazol-2-yl]methyl]-3-phenethyl-4H-quinazolin-2-one]",18.8
9,"CC(C)CCn1c(CN2C(=O)N(C3CC3)Cc3cccnc32)nc2cc(CN)ccc21 [Example 12, 1-[[5-(aminomethyl)-1-isopentyl-benzimidazol-2-yl]methyl]-3-cyclopropyl-4H-pyrido[2,3-d]pyrimidin-2-one]",53.1
